Laboratory results: US20230157952A1, “METHOD FOR IMPROVING THE STABILITY OF A PHARMACEUTICAL COMPOSITION COMPRISING A HIGH PENETRATION DRUG, AND THE PHARMACEUTICAL COMPOSITION OBTAINED THEREFROM” (Techfields Inc., priority 2020, published 2023)
Blank lines part the entries; values can stand above or below the compound they belong to. Non-standard residues stand in square brackets, D forms with d. Arg(NO2) = N=C(NCCC[C@H](N)C(=O)O)N[N+](=O)[O-]

Key:
[1] = Effect of temperature (and pH) on the stability of the solution (purity); type: physicochemical; conditions: 7% solution in water
[2] = Effect of concentration on the stability of the solution (purity over time); conditions: for Purity (%) at Day 3 / Purity (%) at Day 7 / Purity (%) at hr 0 / Purity (%) at hr 2 / Purity (%) at hr 24 / Purity(%) at Day 14: 25° C.; for Purity at Day 30 / Purity at Day 90 / Purity at Day 180 / Purity at day 0: 1 equivalent sodium acetate in 50% ethanol at 25° C.

Compound: CCN(CC)CCOC(=O)Cc1c(C)n(C(=O)c2ccc(Cl)cc2)c2ccc(OC)cc12.Cl
Purity(%) at day 0 ([1]; pH 1.0, day 0): 98.1 ± 0.3%
Purity(%) at day 21 (5° C.) ([1]; pH 1.0, day 21, 5° C.): 92.3 ± 0.3%
Purity(%) at day 21 (25° C.) ([1]; pH 1.0, day 21, 25° C.): 69.0 ± 0.3%
Purity(%) at day 21 (40° C.) ([1]; pH 1.0, day 21, 40° C.): 15.3 ± 0.3%
Purity (%) at day 21 (60° C.) ([1]; pH 1.0, day 21, 60° C.): 0%
Purity(%) at day 0 ([1]; pH 2.0, day 0): 98.3 ± 0.4%
Purity(%) at day 21 (5° C.) ([1]; pH 2.0, day 21, 5° C.): 95.9 ± 0.3%
Purity(%) at day 21 (25° C.) ([1]; pH 2.0, day 21, 25° C.): 83.1 ± 0.3%
Purity(%) at day 21 (40° C.) ([1]; pH 2.0, day 21, 40° C.): 27.5 ± 0.3%
Purity (%) at day 21 (60° C.) ([1]; pH 2.0, day 21, 60° C.): 0%
Purity(%) at day 0 ([1]; pH 3.0, day 0): 98.5 ± 0.2%
Purity(%) at day 21 (5° C.) ([1]; pH 3.0, day 21, 5° C.): 97.3 ± 0.3%
Purity(%) at day 21 (25° C.) ([1]; pH 3.0, day 21, 25° C.): 94.5 ± 0.2%
Purity(%) at day 21 (40° C.) ([1]; pH 3.0, day 21, 40° C.): 49.3 ± 0.3%
Purity (%) at day 21 (60° C.) ([1]; pH 3.0, day 21, 60° C.): 0%
Purity(%) at day 0 ([1]; pH 3.7, day 0): 98.5 ± 0.2%
Purity(%) at day 21 (5° C.) ([1]; pH 3.7, day 21, 5° C.): 97.7 ± 0.2%
Purity(%) at day 21 (25° C.) ([1]; pH 3.7, day 21, 25° C.): 97.3 ± 0.3%
Purity(%) at day 21 (40° C.) ([1]; pH 3.7, day 21, 40° C.): 57.9 ± 0.2%
Purity (%) at day 21 (60° C.) ([1]; pH 3.7, day 21, 60° C.): 16.3 ± 0.5%
Purity(%) at day 0 ([1]; pH 4.0, day 0): 98.7 ± 0.1%
Purity(%) at day 21 (5° C.) ([1]; pH 4.0, day 21, 5° C.): 98.1 ± 0.3%
Purity(%) at day 21 (25° C.) ([1]; pH 4.0, day 21, 25° C.): 97.5 ± 0.2%
Purity(%) at day 21 (40° C.) ([1]; pH 4.0, day 21, 40° C.): 68.7 ± 0.3%
Purity (%) at day 21 (60° C.) ([1]; pH 4.0, day 21, 60° C.): 19.6 ± 0.3%
Purity(%) at day 0 ([1]; pH 4.3, day 0): 98.8 ± 0.2%
Purity(%) at day 21 (5° C.) ([1]; pH 4.3, day 21, 5° C.): 98.3 ± 0.3%
Purity(%) at day 21 (25° C.) ([1]; pH 4.3, day 21, 25° C.): 97.3 ± 0.3%
Purity(%) at day 21 (40° C.) ([1]; pH 4.3, day 21, 40° C.): 70.1 ± 0.3%
Purity (%) at day 21 (60° C.) ([1]; pH 4.3, day 21, 60° C.): 17.7 ± 0.2%
Purity(%) at day 0 ([1]; pH 4.6, day 0): 98.7 ± 0.1%
Purity(%) at day 21 (5° C.) ([1]; pH 4.6, day 21, 5° C.): 98.2 ± 0.2%
Purity(%) at day 21 (25° C.) ([1]; pH 4.6, day 21, 25° C.): 96.4 ± 0.2%
Purity(%) at day 21 (40° C.) ([1]; pH 4.6, day 21, 40° C.): 56.3 ± 0.2%
Purity (%) at day 21 (60° C.) ([1]; pH 4.6, day 21, 60° C.): 15.3 ± 0.3%
Purity(%) at day 0 ([1]; pH 5.0, day 0): 98.6 ± 0.3%
Purity(%) at day 21 (5° C.) ([1]; pH 5.0, day 21, 5° C.): 97.0 ± 0.2%
Purity(%) at day 21 (25° C.) ([1]; pH 5.0, day 21, 25° C.): 94.1 ± 0.3%
Purity(%) at day 21 (40° C.) ([1]; pH 5.0, day 21, 40° C.): 42.8 ± 0.3%
Purity (%) at day 21 (60° C.) ([1]; pH 5.0, day 21, 60° C.): 1.9 ± 0.2%
Purity(%) at day 0 ([1]; pH 6.0, day 0): 98.5 ± 0.4%
Purity(%) at day 21 (5° C.) ([1]; pH 6.0, day 21, 5° C.): 95.3 ± 0.3%
Purity(%) at day 21 (25° C.) ([1]; pH 6.0, day 21, 25° C.): 87.8 ± 0.2%
Purity(%) at day 21 (40° C.) ([1]; pH 6.0, day 21, 40° C.): 27.6 ± 0.2%
Purity (%) at day 21 (60° C.) ([1]; pH 6.0, day 21, 60° C.): 0%
Purity(%) at day 0 ([1]; pH 7.0, day 0): 98.4 ± 0.3%
Purity(%) at day 21 (5° C.) ([1]; pH 7.0, day 21, 5° C.): 90.2 ± 0.3%
Purity(%) at day 21 (25° C.) ([1]; pH 7.0, day 21, 25° C.): 59.9 ± 0.3%
Purity(%) at day 21 (40° C.) ([1]; pH 7.0, day 21, 40° C.): 11.4 ± 0.4%
Purity (%) at day 21 (60° C.) ([1]; pH 7.0, day 21, 60° C.): 0%
Purity(%) at day 0 ([1]; pH 8.0, day 0): 98.0 ± 0.5%
Purity(%) at day 21 (5° C.) ([1]; pH 8.0, day 21, 5° C.): 79.3 ± 0.4%
Purity(%) at day 21 (25° C.) ([1]; pH 8.0, day 21, 25° C.): 47.6 ± 0.3%
Purity(%) at day 21 (40° C.) ([1]; pH 8.0, day 21, 40° C.): 0%
Purity (%) at day 21 (60° C.) ([1]; pH 8.0, day 21, 60° C.): 0%

Stability of common ester over the concentrations tested ([2]; 0.01% to 10% (or higher) in 50% ethanol at 25° C.): very unstable
Purity (%) at Day 3 ([2]; 0.01 wt % in 50% ethanol): 0.0%
Purity (%) at Day 7 ([2]; 0.01 wt % in 50% ethanol): 0.0%
Purity (%) at hr 0 ([2]; 0.01 wt % in 50% ethanol): 97.5%
Purity (%) at hr 2 ([2]; 0.01 wt % in 50% ethanol): 25.2%
Purity (%) at hr 24 ([2]; 0.01 wt % in 50% ethanol): 0.0%
Purity(%) at Day 14 ([2]; 0.01 wt % in 50% ethanol): 0.0%
Purity (%) at Day 3 ([2]; 0.1 wt % in 50% ethanol): 0.0%
Purity (%) at Day 7 ([2]; 0.1 wt % in 50% ethanol): 0.0%
Purity (%) at hr 0 ([2]; 0.1 wt % in 50% ethanol): 97.4%
Purity (%) at hr 2 ([2]; 0.1 wt % in 50% ethanol): 31.2%
Purity (%) at hr 24 ([2]; 0.1 wt % in 50% ethanol): 0.0%
Purity(%) at Day 14 ([2]; 0.1 wt % in 50% ethanol): 0.0%
Purity (%) at Day 3 ([2]; 1 wt % in 50% ethanol): 0.0%
Purity (%) at Day 7 ([2]; 1 wt % in 50% ethanol): 0.0%
Purity (%) at hr 0 ([2]; 1 wt % in 50% ethanol): 97.5%
Purity (%) at hr 2 ([2]; 1 wt % in 50% ethanol): 41.3%
Purity (%) at hr 24 ([2]; 1 wt % in 50% ethanol): 1.6%
Purity(%) at Day 14 ([2]; 1 wt % in 50% ethanol): 0.0%
Purity (%) at Day 3 ([2]; 3 wt % in 50% ethanol): 1.1%
Purity (%) at Day 7 ([2]; 3 wt % in 50% ethanol): 0.0%
Purity (%) at hr 0 ([2]; 3 wt % in 50% ethanol): 97.4%
Purity (%) at hr 2 ([2]; 3 wt % in 50% ethanol): 52.3%
Purity (%) at hr 24 ([2]; 3 wt % in 50% ethanol): 15.4%
Purity(%) at Day 14 ([2]; 3 wt % in 50% ethanol): 0.0%
Purity (%) at Day 3 ([2]; 5 wt % in 50% ethanol): 3.6%
Purity (%) at Day 7 ([2]; 5 wt % in 50% ethanol): 0.0%
Purity (%) at hr 0 ([2]; 5 wt % in 50% ethanol): 97.4%
Purity (%) at hr 2 ([2]; 5 wt % in 50% ethanol): 56.3%
Purity (%) at hr 24 ([2]; 5 wt % in 50% ethanol): 20.3%
Purity(%) at Day 14 ([2]; 5 wt % in 50% ethanol): 0.0%
Purity (%) at Day 3 ([2]; 10 wt % in 50% ethanol): 5.1%
Purity (%) at Day 7 ([2]; 10 wt % in 50% ethanol): 0.0%
Purity (%) at hr 0 ([2]; 10 wt % in 50% ethanol): 97.8%
Purity (%) at hr 2 ([2]; 10 wt % in 50% ethanol): 65.5%
Purity (%) at hr 24 ([2]; 10 wt % in 50% ethanol): 25.1%
Purity(%) at Day 14 ([2]; 10 wt % in 50% ethanol): 0.0%
Compound: CC(C)(C)OC(=O)c1ccccc1 [t-Butyl benzoate, reference compound]

Compound: H-Val-Pro-Gly-Pro-Arg(NO2)—OCH2CH3•HCl (H-VPGP[Arg(NO2)]-OEt; also: HCl salt)
Purity at Day 30 ([2]; 0.01 wt %): 55.5%
Purity at Day 90 ([2]; 0.01 wt %): 22.2%
Purity at Day 180 ([2]; 0.01 wt %): 0%
Purity at day 0 ([2]; 0.01 wt %): 98.1%
Purity at Day 30 ([2]; 0.1 wt %): 65.7%
Purity at Day 90 ([2]; 0.1 wt %): 31.3%
Purity at Day 180 ([2]; 0.1 wt %): 9.6%
Purity at day 0 ([2]; 0.1 wt %): 98.2%
Purity at Day 30 ([2]; 1 wt %): 91.1%
Purity at Day 90 ([2]; 1 wt %): 77.3%
Purity at Day 180 ([2]; 1 wt %): 58.6%
Purity at day 0 ([2]; 1 wt %): 98.5%
Purity at Day 30 ([2]; 3 wt %): 96.8%
Purity at Day 90 ([2]; 3 wt %): 93.2%
Purity at Day 180 ([2]; 3 wt %): 87.8%
Purity at day 0 ([2]; 3 wt %): 98.6%
Purity at Day 30 ([2]; 5 wt %): 97.3%
Purity at Day 90 ([2]; 5 wt %): 94.9%
Purity at Day 180 ([2]; 5 wt %): 90.5%
Purity at day 0 ([2]; 5 wt %): 98.7%
Purity at Day 30 ([2]; 7 wt %): 97.6%
Purity at Day 90 ([2]; 7 wt %): 95.2%
Purity at Day 180 ([2]; 7 wt %): 91.7%
Purity at day 0 ([2]; 7 wt %): 98.7%
Purity at Day 30 ([2]; 8 wt %): 97.7%
Purity at Day 90 ([2]; 8 wt %): 95.2%
Purity at Day 180 ([2]; 8 wt %): 91.6%
Purity at day 0 ([2]; 8 wt %): 98.6%
Purity at Day 30 ([2]; 10 wt %): 97.5%
Purity at Day 90 ([2]; 10 wt %): 95.3%
Purity at Day 180 ([2]; 10 wt %): 91.7%
Purity at day 0 ([2]; 10 wt %): 98.6%
Purity at Day 30 ([2]; 15 wt %): 97.7%
Purity at Day 90 ([2]; 15 wt %): 95.3%
Purity at Day 180 ([2]; 15 wt %): 91.8%
Purity at day 0 ([2]; 15 wt %): 98.8%
Purity at Day 30 ([2]; 20 wt %): 97.5%
Purity at Day 90 ([2]; 20 wt %): 95.1%
Purity at Day 180 ([2]; 20 wt %): 91.5%
Purity at day 0 ([2]; 20 wt %): 98.6%
Purity at Day 30 ([2]; 30 wt %): 97.5%
Purity at Day 90 ([2]; 30 wt %): 95.1%
Purity at Day 180 ([2]; 30 wt %): 91.6%
Purity at day 0 ([2]; 30 wt %): 98.7%
Purity at Day 30 ([2]; 50 wt %): 97.7%
Purity at Day 90 ([2]; 50 wt %): 95.3%
Purity at Day 180 ([2]; 50 wt %): 91.8%
Purity at day 0 ([2]; 50 wt %): 98.7%
